# Data as given in US12594284B2, “Combination of micronutrients to stimulate the endogenous production of hydrogen sulfide (H2S)” (priority 2020, dated 2026).
# Columns and labels:
# reductive stress = assay: Reductive stress induced by vitamin C in healthy male subjects (plasma NADH, erythrocyte GSH); format: in vivo, human; details: vitamin C 2 gr per day alone, 1 week
# From the text: Vitamin C caused a subclinical reductive stress as reported by a 40% increase of plasma NADH and 31% and 63% increase of erythrocyte GSH and GSH to GSSG ratio, respectively. […] Thus, the aforementioned composition prevented the reductive stress induced by a powerful reducing agent.
# [1] = system: endogenous production of H2S (CBS, CSE, 3MST); assay: Inventor's observations on administration of the micronutrients to humans (H2S production markers, redox, homocysteine, insulin resistance); format: in vivo, human; details: for triggering of the H2S system by form of vitamin B6: subjects possibly with genetic weakness of vitamin B6 activation and recycling
# [2] = system: endogenous production of H2S (CBS, CSE, 3MST); details: subjects with chronically low-vitamin B6 status; cited from earlier work
# [3] = system: blood pressure of pre-hypertensive patients; details: cited from earlier work
# [4] = taurine added to L-cystine supplementation
# [5] = taurine 1.6 gr per day, 12 weeks
# [6] = vitamin B6 added to taurine and L-cystine supplementation
smiles,measurement,setting,value
"O=C1O[C@H]([C@@H](O)CO)C(O)=C1O [Vitamin C, vitamin C]",increase of GSH to GSSG ratio,reductive stress,63%
same,increase of erythrocyte GSH,reductive stress,31%
same,increase of plasma NADH,reductive stress,40%
N[C@@H](CS)C(=O)O [cysteine],H2S levels,[1]; isolated cysteine administration,fail to increase H2S levels
Cc1ncc(COP(=O)(O)O)c(C=O)c1O [pyridoxal-5-phosphate],triggering of the H2S system by form of vitamin B6,[1],responded normally
"Cc1ncc(CO)c(CO)c1O [pyridoxine, reference compound]",triggering of the H2S system by form of vitamin B6,[1],failed to trigger the system in some subjects
same,plasma concentrations of lanthionine and homolanthionine,[2],did not respond
NCCS(=O)(=O)O [taurine],daily amounts that do not produce any further added effect,[1]; [4],> 2000 mg
same,daily dose at which increased H2S production compared to L-cystine alone is already measured,[1]; [4],100 mg per day
same,expression of CBS and CSE,"[3]; human, in vivo",induced the expression of CBS and CSE
same,circulating H2S,[3]; [5],increase of circulating H2S
same,reduction of diastolic blood pressure,[3]; [5],3.4 mm Hg
same,reduction of systolic blood pressure,[3]; [5],4.6 mm Hg
Cc1ncc(CO)c(CO)c1O.Cl [vitamin B6],CSE activity,[1]; supra-physiological amounts of vitamin B6,effective in activating CSE activity
same,daily amounts that do not produce any further added effect,[1]; [6],> 100 mg
same,daily dose at which increased H2S production compared to L-cystine and taurine is already measured,[1]; [6],2 mg per day
